In patent US20260242353A1, “HETEROARYL DERIVATIVES AS DDRs INHIBITORS” (CHIESI FARMACEUTICI S.P.A., priority 2022, published 2026):
Read-outs that look alike come from different tables or passages of the source.

What was measured:
DDR2 = biological target: T1, DDR2 (Homo sapiens, UniProt Q16832); experiment: LanthaScreen Europium Kinase Binding assay, DDR2
T1 construct: purchased Life Technologies
T1 sequence (Q16832 22-855): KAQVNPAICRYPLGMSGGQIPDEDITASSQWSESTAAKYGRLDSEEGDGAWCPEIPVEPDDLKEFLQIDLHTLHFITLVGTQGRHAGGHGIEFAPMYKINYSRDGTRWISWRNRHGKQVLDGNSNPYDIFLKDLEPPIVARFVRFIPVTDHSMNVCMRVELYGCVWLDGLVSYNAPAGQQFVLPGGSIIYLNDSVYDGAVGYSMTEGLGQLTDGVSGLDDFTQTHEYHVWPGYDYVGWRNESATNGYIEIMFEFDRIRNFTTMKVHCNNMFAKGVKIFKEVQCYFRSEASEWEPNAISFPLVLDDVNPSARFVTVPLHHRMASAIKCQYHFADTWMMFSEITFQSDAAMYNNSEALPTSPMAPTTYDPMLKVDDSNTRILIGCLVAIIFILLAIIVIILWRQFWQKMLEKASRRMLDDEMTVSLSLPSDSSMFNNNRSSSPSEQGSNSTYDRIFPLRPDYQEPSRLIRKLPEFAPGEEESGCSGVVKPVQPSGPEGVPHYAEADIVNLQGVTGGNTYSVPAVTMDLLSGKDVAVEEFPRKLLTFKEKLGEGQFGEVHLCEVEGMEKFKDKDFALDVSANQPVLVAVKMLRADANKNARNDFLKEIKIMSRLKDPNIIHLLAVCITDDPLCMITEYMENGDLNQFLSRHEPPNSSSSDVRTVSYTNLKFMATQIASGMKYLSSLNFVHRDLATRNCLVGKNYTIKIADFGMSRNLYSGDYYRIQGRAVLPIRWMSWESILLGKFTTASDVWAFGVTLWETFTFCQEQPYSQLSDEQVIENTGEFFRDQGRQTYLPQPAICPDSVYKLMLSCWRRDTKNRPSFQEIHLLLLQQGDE
In short: (§1)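 Compounds were incubated 1 h at rt with 5 nM DDR1 plus 20 nM Kinase Tracer 178, or 5 nM DDR2 plus 10 nM tracer, and 2 nM Eu anti-GST antibody in HEPES pH 7.5 buffer. Read-out was the TR-FRET 665/615 nm ratio. IC50 came from a 4-parameter fit and was converted to Ki by Cheng-Prusoff.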

DDR1 = biological target: T2, DDR1 (Homo sapiens, UniProt Q08345); experiment: LanthaScreen Europium Kinase Binding assay, DDR1
T2 construct: purchased Carna Biosciences
T2 sequence (Q08345 19-913): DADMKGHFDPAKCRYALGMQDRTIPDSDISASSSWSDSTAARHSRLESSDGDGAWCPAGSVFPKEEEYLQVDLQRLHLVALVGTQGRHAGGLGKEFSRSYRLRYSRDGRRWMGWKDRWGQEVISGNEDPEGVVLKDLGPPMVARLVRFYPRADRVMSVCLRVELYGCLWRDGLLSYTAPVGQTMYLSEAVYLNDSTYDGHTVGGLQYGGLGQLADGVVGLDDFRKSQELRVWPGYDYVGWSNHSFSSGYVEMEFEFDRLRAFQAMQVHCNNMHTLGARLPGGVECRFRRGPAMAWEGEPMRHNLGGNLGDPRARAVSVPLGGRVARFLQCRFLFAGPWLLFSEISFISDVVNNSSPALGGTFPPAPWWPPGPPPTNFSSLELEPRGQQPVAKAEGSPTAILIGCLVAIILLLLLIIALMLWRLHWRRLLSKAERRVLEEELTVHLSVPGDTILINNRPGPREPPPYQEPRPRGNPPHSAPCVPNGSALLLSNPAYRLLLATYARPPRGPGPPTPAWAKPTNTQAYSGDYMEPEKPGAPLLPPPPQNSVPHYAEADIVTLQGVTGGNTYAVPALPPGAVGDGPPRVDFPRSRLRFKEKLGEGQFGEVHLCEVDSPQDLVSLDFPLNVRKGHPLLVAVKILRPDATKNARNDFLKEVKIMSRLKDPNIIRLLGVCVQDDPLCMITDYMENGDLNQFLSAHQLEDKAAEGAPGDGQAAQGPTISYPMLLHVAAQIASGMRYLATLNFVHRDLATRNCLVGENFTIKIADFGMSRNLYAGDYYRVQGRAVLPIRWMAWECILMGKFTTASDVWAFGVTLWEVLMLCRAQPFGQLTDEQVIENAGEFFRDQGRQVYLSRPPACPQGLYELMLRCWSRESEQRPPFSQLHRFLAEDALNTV
In short: as §1

[1] = 5 nM DDR2, 10 nM Kinase Tracer 178, 1 h at rt, Ki from IC50 by Cheng-Prusoff, read-out: Ki DDR2
[2] = 5 nM DDR1, 20 nM Kinase Tracer 178, 1 h at rt, Ki from IC50 by Cheng-Prusoff, read-out: Ki DDR1
[3] = same binding assay, 5 nM DDR2, 10 nM Kinase Tracer 178, read-out: DDR2 Ki
[4] = same binding assay, 5 nM DDR1, 20 nM Kinase Tracer 178, read-out: DDR1 Ki

| Ki (DDR2; [1]) [nM] | Ki (DDR1; [2]) [nM] | Ki (DDR2; [3]) [nM] | Ki (DDR1; [4]) [nM] | SMILES |
| --- | --- | --- | --- | --- |
| < 5 | < 5 |  |  | Cc1ccc(C(=O)Nc2cncc(C(F)(F)F)c2)cc1[C@@H]1CCN(c2cncc(C(=O)NC3COC3)c2)C1 [Example 38, (S)-5-(3-(2-methyl-5-((5-(trifluoromethyl)pyridin-3-yl)carbamoyl)phenyl)pyrrolidin-1-yl)-N-(oxetan-3-yl)nicotinamide] |
| 5 to 25 | < 5 |  |  | Cc1ccc(C(=O)Nc2cncc(C(F)(F)F)c2)cc1N1CC(Oc2cncc(C(N)=O)c2)C1 [Example 132, 5-((1-(2-methyl-5-((5-(trifluoromethyl)pyridin-3-yl)carbamoyl)phenyl)azetidin-3-yl)oxy)nicotinamide] |
| < 5 | < 5 |  |  | Cc1ccc(C(=O)Nc2cncc(OC(F)(F)F)c2)cc1[C@@H]1CCN(c2cncnc2)C1 [Example 18, (S)-4-methyl-3-(1-(pyrimidin-5-yl)pyrrolidin-3-yl)-N-(5-(trifluoromethoxy)pyridin-3-yl)benzamide] |
| 5 to 25 | < 5 |  |  | NC(=O)c1cc(N2CCC(c3cc(C(=O)Nc4cncc(C(F)(F)F)c4)ccc3OC(F)F)C2)ccn1 (single isomer, unassigned) [Example 119, 4-(3-(2-(difluoromethoxy)-5-((5-(trifluoromethyl)pyridin-3-yl)carbamoyl)phenyl)pyrrolidin-1-yl)picolinamide] |
| 5 to 25 | < 5 |  |  | CNC(=O)c1cc(N2CCC(c3cc(C(=O)Nc4cncc(C(F)(F)F)c4)ccc3OC)C2)ccn1 (stereo not drawn) [Example 127, 4-(3-(2-methoxy-5-((5-(trifluoromethyl)pyridin-3-yl)carbamoyl)phenyl)pyrrolidin-1-yl)-N-methylpicolinamide] |
| 25 to 100 | 5 to 25 |  |  | O=C(Nc1cncc(C(F)(F)F)c1)c1ccc(C(F)F)c(C2CCN(c3cncnc3)C2)c1 (stereo not drawn) [Example 120, 4-(difluoromethyl)-3-(1-(pyrimidin-5-yl)pyrrolidin-3-yl)-N-(5-(trifluoromethyl)pyridin-3-yl)benzamide] |
| < 5 | < 5 |  |  | Cc1ccc(C(=O)Nc2cncc(C(F)(F)F)c2)cc1[C@@H]1CCN(c2cnccc2C#N)C1 [Example 75, (S)-3-(1-(4-cyanopyridin-3-yl)pyrrolidin-3-yl)-4-methyl-N-(5-(trifluoromethyl)pyridin-3-yl)benzamide] |
| 25 to 100 | < 5 |  |  | Cc1ccc(C(=O)Nc2cncc(C(F)(F)F)c2)cc1[C@@H]1CCN(c2cnccc2C(=O)NC2COC2)C1 [Example 41, (S)-3-(3-(2-methyl-5-((5-(trifluoromethyl)pyridin-3-yl)carbamoyl)phenyl)pyrrolidin-1-yl)-N-(oxetan-3-yl)isonicotinamide] |
| 5 to 25 | < 5 |  |  | Cc1ccc(C(=O)Nc2cc(OC(F)F)ccn2)cc1[C@@H]1CCN(c2cnccn2)C1 [Example 92, N-[4-(difluoromethoxy)-2-pyridyl]-4-methyl-3-[(3S)-1-pyrazin-2-ylpyrrolidin-3-yl]benzamide] |
| < 5 | < 5 |  |  | Cc1ccc(C(=O)Nc2cc(C(C)(C)C(F)(F)F)on2)cc1[C@@H]1CCN(c2cncc(C(N)=O)c2)C1 [Example 4, (S)-5-(3-(2-methyl-5-((5-(1,1,1-trifluoro-2-methylpropan-2-yl)isoxazol-3-yl)carbamoyl)phenyl)pyrrolidin-1-yl)nicotinamide] |

Second part, the compound before the results:

| SMILES | Ki (DDR2; [1]) [nM] | Ki (DDR1; [2]) [nM] | Ki (DDR2; [3]) [nM] | Ki (DDR1; [4]) [nM] |
| --- | --- | --- | --- | --- |
| Cc1ccc(C(=O)Nc2cc(C(C)(C)C)n(C)n2)cc1[C@@H]1CCN(c2cncc(C(N)=O)c2)C1 [Example 3, (S)-5-(3-(5-((5-(tert-butyl)-1-methyl-1H-pyrazol-3-yl)carbamoyl)-2-methylphenyl)pyrrolidin-1-yl)nicotinamide] | < 5 | < 5 |  |  |
| Cc1ccc(C(=O)Nc2cc(OC(F)(F)F)ccn2)cc1[C@@H]1CCN(c2ccnc(C(N)=O)c2)C1 [Example 57, (S)-4-(3-(2-methyl-5-((4-(trifluoromethoxy)pyridin-2-yl)carbamoyl)phenyl)pyrrolidin-1-yl)picolinamide] | 5 to 25 | < 5 |  |  |
| Cc1ccc(C(=O)Nc2cc(C(C)(C)C)on2)cc1[C@@H]1CCN(c2cncc(C(N)=O)c2)C1 [Example 11, (S)-5-(3-(5-((5-(tert-butyl)isoxazol-3-yl)carbamoyl)-2-methylphenyl)pyrrolidin-1-yl)nicotinamide] | < 5 | < 5 |  |  |
| CC(=O)Nc1ccc(OC2CN(c3cc(C(=O)Nc4cncc(C(F)(F)F)c4)ccc3C)C2)cn1 [Example 45, 3-(3-((6-acetamidopyridin-3-yl)oxy)azetidin-1-yl)-4-methyl-N-(5-(trifluoromethyl)pyridin-3-yl)benzamide] | 5 to 25 | < 5 |  |  |
| Cc1ccc(C(=O)Nc2cncc(C(F)(F)F)c2)cc1[C@@H]1CCN(c2cnn3ccc(N4CCN(C)CC4)nc23)C1 [Example 83, (S)-4-methyl-3-(1-(5-(4-methylpiperazin-1-yl)pyrazolo[1,5-a]pyrimidin-3-yl)pyrrolidin-3-yl)-N-(5-(trifluoromethyl)pyridin-3-yl)benzamide] | 5 to 25 | < 5 |  |  |
| Cc1ccc(C(=O)Nc2cncc(C(F)(F)F)c2)cc1[C@@H]1CCN(c2cncc(C(=O)N[C@H]3C[C@@H](O)C3)c2)C1 [Example 39, N-((1s,3R)-3-hydroxycyclobutyl)-5-((S)-3-(2-methyl-5-((5-(trifluoromethyl)pyridin-3-yl)carbamoyl)phenyl)pyrrolidin-1-yl)nicotinamide] | < 5 | < 5 |  |  |
| O=C(Nc1cncc(C(F)(F)F)c1)c1ccc(OC(F)F)c(C2CCN(c3cncnc3)C2)c1 (stereo not drawn) [Example 113, 4-(difluoromethoxy)-3-(1-(pyrimidin-5-yl)pyrrolidin-3-yl)-N-(5-(trifluoromethyl)pyridin-3-yl)benzamide] | < 5 | < 5 |  |  |
| NC(=O)c1cc(N2CCC(c3cc(C(=O)Nc4cncc(C(F)(F)F)c4)ccc3OC(F)F)C2)ccn1 (single isomer, unassigned) [Example 118, 4-(3-(2-(difluoromethoxy)-5-((5-(trifluoromethyl)pyridin-3-yl)carbamoyl)phenyl)pyrrolidin-1-yl)picolinamide] | 5 to 25 | < 5 |  |  |
| Cc1ccc(C(=O)Nc2cncc(C(F)(F)F)c2)cc1[C@@H]1CCN(Cc2cnc3ccccn23)C1 [Example C1, (S)-3-(1-(imidazo[1,2-a]pyridin-3-ylmethyl)pyrrolidin-3-yl)-4-methyl-N-(5 (trifluoromethyl)pyridin-3-yl)benzamide] |  |  | 588 | 148 |
| Cc1ccc(C(=O)Nc2cncc(C(F)(F)F)c2)cc1[C@@H]1CCN(c2cnc3[nH]nc(CN(C)C)c3c2)C1 [Example 101, (S)-3-(1-(3-((dimethylamino)methyl)-1H-pyrazolo[3,4-b]pyridin-5-yl)pyrrolidin-3-yl)-4-methyl-N-(5-(trifluoromethyl)pyridin-3-yl)benzamide] | 5 to 25 | < 5 |  |  |
| CC(=O)Nc1cncc(OC2CN(c3cc(C(=O)Nc4cncc(C(F)(F)F)c4)ccc3C)C2)c1 [Example 133, 3-(3-((5-acetamidopyridin-3-yl)oxy)azetidin-1-yl)-4-methyl-N-(5-(trifluoromethyl)pyridin-3-yl)benzamide] | < 5 | < 5 |  |  |
| Cc1ccc(C(=O)Nc2cncc(C(F)(F)F)c2)cc1[C@@H]1CCN(CC(N)=O)C1 [Example C2, (S)-3-(1-(2-amino-2-oxoethyl)pyrrolidin-3-yl)-4-methyl-N-(5-(trifluoromethyl)pyridin-3-yl)benzamide] |  |  | 588 | 487 |
| COc1ncc(N2CC[C@@H](c3cc(C(=O)Nc4cncc(C(F)(F)F)c4)ccc3C)C2)cn1 [Example 25, (S)-3-(1-(2-methoxypyrimidin-5-yl)pyrrolidin-3-yl)-4-methyl-N-(5-(trifluoromethyl)pyridin-3-yl)benzamide] | 5 to 25 | < 5 |  |  |
| Cc1ccc(C(=O)Nc2cncc(C(F)(F)F)c2)cc1[C@@H]1CCN(c2ncnc3ccsc23)C1 [Example 107, (S)-4-methyl-3-(1-(thieno[3,2-d]pyrimidin-4-yl)pyrrolidin-3-yl)-N-(5-(trifluoromethyl)pyridin-3-yl)benzamide] | < 5 | < 5 |  |  |
